# Measured values taken from paper PMC10111022, “Comparison of pharmacological inhibitors of lysine-specific demethylase 1 in glioblastoma stem cells reveals inhibitor-specific efficacy profiles” (Frontiers in Neurology, 2023).
# System: MDA-GSC20
# Experiment: qPCR of resistance-related genes, MDA-GSC20
# Format: cell-based, Human
# Conditions: MDA-GSC20 (resistant)
# Method: Total RNA was extracted using RNeasy Plus Mini Kit (Qiagen; Hilden, Germany) following the manufacturer’s protocol. cDNA was synthesized with the iScript cDNA synthesis kit (Bio-Rad; Hercules, CA), qPCR was performed using Forget-Me-Not EvaGreen qPCR kit (Biotium; Fremont, CA), and samples were analyzed with the LightCycler96 (Roche; Basel, Switzerland). Cq values were normalized to PPIA and reported as relative fold change from untreated control.
smiles,measurement,value
c1ccc([C@@H]2C[C@H]2NC2CCNCC2)cc1 [GSK-LSD1],"expression of resistance-related genes (FTH1, RAB39B, HKDC1, FAM213A)",increase in all four genes
